Holding throughout (format): functional
The subject of experiment [1] is Staphylococcus epidermidis. The experiment can be described thus: Minimum inhibitory concentration (MIC) against Staphylococcus epidermidis 178. To be noted: Staphylococcus epidermidis; read-out: MIC.
In experiment [2] the test system is Staphylococcus aureus. The experiment can be described thus: Minimum inhibitory concentration (MIC) against Staphylococcus aureus 241. To be noted: Staphylococcus aureus; read-out: MIC.
The test system of experiment [3] is Pseudomonas aeruginosa. Put plainly: Minimum inhibitory concentration (MIC) against Pseudomonas aeruginosa 1912E. The conditions noted are these: Pseudomonas aeruginosa; read-out: MIC.
Experiment [4] deals with Escherichia coli. The experiment can be described thus: Minimum inhibitory concentration (MIC) against Escherichia coli TEM9 2639E. To be noted: Escherichia coli; read-out: MIC.
Experiment [5] deals with Staphylococcus epidermidis. Put plainly: Minimum inhibitory concentration (MIC) against Staphylococcus epidermidis 887E.
In experiment [6] the test system is Enterococcus faecalis. The experiment can be described thus: Minimum inhibitory concentration (MIC) against Streptococcus faecalis 29212. The conditions noted are these: Enterococcus faecalis; read-out: MIC.
Experiment [7] has as its system Escherichia coli. The experiment can be described thus: Minimum inhibitory concentration (MIC) against Escherichia coli 3190Y.
Experiment [8] has as its system Klebsiella aerogenes. The experiment can be described thus: Minimum inhibitory concentration (MIC) against Klebsiella aerogenes 1082E. The conditions noted are these: Klebsiella aerogenes; read-out: MIC.
Experiment [9] concerns Staphylococcus aureus. The experiment can be described thus: Minimum inhibitory concentration (MIC) against Staphylococcus aureus 6538p.
The subject of experiment [10] is Acinetobacter calcoaceticus. The experiment can be described thus: Minimum inhibitory concentration (MIC) against Acinetobacter calcoaceticus 15473. The conditions noted are these: Acinetobacter calcoaceticus; read-out: MIC.
The test system of experiment [11] is Escherichia coli. Put plainly: Minimum inhibitory concentration (MIC) against Escherichia coli 10536.
Experiment [12] has as its system Enterobacter cloacae. Put plainly: Minimum inhibitory concentration (MIC) against Enterobacter cloacae P99.
Experiment [13] relates to Staphylococcus aureus. The experiment can be described thus: Minimum inhibitory concentration (MIC) against Staphylococcus aureus giorgio.
Experiment [14] relates to Bacillus subtilis. Put plainly: Minimum inhibitory concentration (MIC) against Bacillus subtilis ATCC 6633.
Experiment [15] has as its system Acinetobacter calcoaceticus. The experiment can be described thus: Minimum inhibitory concentration (MIC) against Acinetobacter calcoaceticus 5473.

≈ marks a conversion by molar mass, not a printed value. A value given as a limit tells only on which side of the number the result lay.

This passage reports MIC results from ChEMBL document CHEMBL1130203, “Novel fluoroquinolone antibacterial agents containing oxime-substituted (aminomethyl)pyrrolidines: synthesis and antibacterial activity of 7-(4-(aminomethyl)-3-(methoxyimino)pyrrolidin-1-yl)-1-cyclopropyl-6- fluoro-4-oxo-1,4-dihydro[1,8]naphthyridine-3-carboxylic acid (LB20304)” (J Med Chem, 1997).

By MIC is commonly meant the lowest concentration found to suppress growth. In the case of `CNCC1CN(c2nc3c(cc2F)c(=O)c(C(=O)O)cn3C2CC2)C/C1=N\OC` (configuration not stated), the MIC in experiment [1] is 128 µg/mL (≈ 317 µM); in experiment [2], 128 µg/mL (≈ 317 µM); in [3] it was 2 µg/mL (≈ 4.96 µM); in experiment [4] it was 0.5 µg/mL (≈ 1.24 µM); in experiment [5] it was 0.13 µg/mL (≈ 0.322 µM); in experiment [6] it was 0.5 µg/mL (≈ 1.24 µM). The MIC in [7] was 0.063 µg/mL (≈ 0.156 µM); in [8], 0.5 µg/mL (≈ 1.24 µM); in [9] it was 0.063 µg/mL (≈ 0.156 µM); in [10], 1 µg/mL (≈ 2.48 µM); in experiment [11], 0.063 µg/mL (≈ 0.156 µM); in experiment [12], 0.13 µg/mL (≈ 0.322 µM). In addition, the MIC in [13] was found to be 0.13 µg/mL (≈ 0.322 µM); in [14] it was 0.25 µg/mL (≈ 0.62 µM).

Consider `CO/N=C1\CN(c2c(F)c(N)c3c(=O)c(C(=O)O)cn(C4CC4)c3c2F)CC1CN` (configuration not stated), for which the MIC was 0.25 µg/mL (≈ 0.593 µM) in experiment [1]; 0.25 µg/mL (≈ 0.593 µM) in [2]; 0.25 µg/mL (≈ 0.593 µM) in experiment [3]; 0.016 µg/mL (≈ 0.038 µM) in [4]; less than 0.008 µg/mL in experiment [5]; 0.016 µg/mL (≈ 0.038 µM) in experiment [6]. Further, the MIC is 0.016 µg/mL (≈ 0.038 µM) in experiment [7]; 0.016 µg/mL (≈ 0.038 µM) in experiment [8]; less than 0.008 µg/mL in experiment [9]; less than 0.008 µg/mL in [11]; 0.031 µg/mL (≈ 0.0736 µM) in experiment [15]; less than 0.008 µg/mL in experiment [12]. In addition, the MIC in [13] and in experiment [14] was less than 0.008 µg/mL throughout.

With `NCC1CN(c2nc3c(cc2F)c(=O)c(C(=O)O)cn3C2CC2)C/C1=N\O` (configuration not stated), the MIC turned out to be 8 µg/mL (≈ 21.3 µM) in experiment [1]; 8 µg/mL (≈ 21.3 µM) in [2]; 2 µg/mL (≈ 5.33 µM) in [3]; 0.13 µg/mL (≈ 0.346 µM) in experiment [4]; 0.031 µg/mL (≈ 0.0826 µM) in experiment [5]; 0.25 µg/mL (≈ 0.666 µM) in [6]. Besides, the MIC in experiment [7] was 0.016 µg/mL (≈ 0.0426 µM); in experiment [8], 0.13 µg/mL (≈ 0.346 µM); in [9], 0.031 µg/mL (≈ 0.0826 µM); in experiment [10], 0.13 µg/mL (≈ 0.346 µM); in experiment [11], 0.031 µg/mL (≈ 0.0826 µM); in experiment [12], 0.031 µg/mL (≈ 0.0826 µM). Moreover, the results for the MIC in experiment [13] and in experiment [14] were 0.031 µg/mL (≈ 0.0826 µM) and 0.016 µg/mL (≈ 0.0426 µM), respectively.

As to `CO/N=C1\CN(c2cc3c(cc2F)c(=O)c(C(=O)O)cn3C2CC2)CC1CN` (configuration not stated), the MIC in experiment [1] is 4 µg/mL (≈ 10.3 µM); in experiment [2] it was 4 µg/mL (≈ 10.3 µM); in experiment [3] it was 0.25 µg/mL (≈ 0.644 µM); in experiment [4], 0.031 µg/mL (≈ 0.0798 µM); in experiment [5], 0.016 µg/mL (≈ 0.0412 µM); in experiment [6], 0.031 µg/mL (≈ 0.0798 µM). For the same compound, the MIC in experiment [7] was less than 0.008 µg/mL; in experiment [8] it was 0.031 µg/mL (≈ 0.0798 µM); in experiment [9] it was 0.008 µg/mL (≈ 0.0206 µM); in [11], less than 0.008 µg/mL; in experiment [15] it was 0.13 µg/mL (≈ 0.335 µM); in experiment [12] it was 0.008 µg/mL (≈ 0.0206 µM). For the same compound, the figures for the MIC in experiment [13] and in experiment [14] were 0.016 µg/mL (≈ 0.0412 µM) and less than 0.008 µg/mL, respectively.

Consider `CO/N=C1\CN(c2nc3c(cc2F)c(=O)c(C(=O)O)cn3-c2ccc(F)cc2F)CC1CN` (configuration not stated), for which the MIC came out at 8 µg/mL (≈ 17.3 µM) in experiment [1]; 8 µg/mL (≈ 17.3 µM) in [2]; 0.5 µg/mL (≈ 1.08 µM) in experiment [3]; 0.25 µg/mL (≈ 0.542 µM) in experiment [4]; 0.016 µg/mL (≈ 0.0347 µM) in experiment [5]; 0.13 µg/mL (≈ 0.282 µM) in experiment [6]. The MIC was 0.008 µg/mL (≈ 0.0173 µM) in experiment [7]; 0.25 µg/mL (≈ 0.542 µM) in experiment [8]; 0.031 µg/mL (≈ 0.0672 µM) in experiment [9]; 0.13 µg/mL (≈ 0.282 µM) in experiment [10]; 0.063 µg/mL (≈ 0.137 µM) in experiment [11]; 0.063 µg/mL (≈ 0.137 µM) in experiment [12]. Further, the MIC in experiment [13] was 0.031 µg/mL (≈ 0.0672 µM); in experiment [14] it was 0.016 µg/mL (≈ 0.0347 µM).

Regarding `CCCO/N=C1\CN(c2nc3c(cc2F)c(=O)c(C(=O)O)cn3C2CC2)CC1CN` (configuration not stated), the MIC was 1 µg/mL (≈ 2.4 µM) in [1]; 2 µg/mL (≈ 4.79 µM) in experiment [2]; 1 µg/mL (≈ 2.4 µM) in experiment [3]; 0.063 µg/mL (≈ 0.151 µM) in experiment [4]; less than 0.008 µg/mL in experiment [5]; 0.063 µg/mL (≈ 0.151 µM) in experiment [6]. Further, the MIC in [7] is less than 0.008 µg/mL; in [8], 0.13 µg/mL (≈ 0.311 µM); in experiment [9] it was 0.008 µg/mL (≈ 0.0192 µM); in experiment [10], 0.031 µg/mL (≈ 0.0743 µM); in experiment [11], less than 0.008 µg/mL; in experiment [12] it was less than 0.008 µg/mL. For the same compound, the MIC in [13] and in [14] was less than 0.008 µg/mL in each case.

Consider `CCO/N=C1\CN(c2nc3c(cc2F)c(=O)c(C(=O)O)cn3C2CC2)CC1CN` (configuration not stated), for which the MIC in experiment [1] is 2 µg/mL (≈ 4.96 µM); in experiment [2] it was 2 µg/mL (≈ 4.96 µM); in [3], 0.5 µg/mL (≈ 1.24 µM); in [4] it was 0.031 µg/mL (≈ 0.0768 µM); in experiment [5], less than 0.008 µg/mL; in experiment [6], 0.063 µg/mL (≈ 0.156 µM). The MIC in experiment [7] was less than 0.008 µg/mL; in experiment [8] it was 0.031 µg/mL (≈ 0.0768 µM); in experiment [9], less than 0.008 µg/mL; in [10], 0.016 µg/mL (≈ 0.0397 µM); in experiment [11], less than 0.008 µg/mL; in [12] it was less than 0.008 µg/mL. Besides, the MIC in experiment [13] and in [14] was less than 0.008 µg/mL throughout.

On to `CO/N=C1\CN(c2nc3c(cc2F)c(=O)c(C(=O)O)cn3C2CC2)CC1CN` (stereo in doubt) [GEMIFLOXACIN], for which the MIC in [1] was 4 µg/mL (≈ 10.3 µM); in [2], 4 µg/mL (≈ 10.3 µM); in experiment [3] it was 0.25 µg/mL (≈ 0.642 µM); in [4], 0.031 µg/mL (≈ 0.0796 µM); in experiment [5], less than 0.008 µg/mL; in experiment [6] it was 0.063 µg/mL (≈ 0.162 µM). Moreover, the MIC in experiment [7] is less than 0.008 µg/mL; in experiment [8], 0.031 µg/mL (≈ 0.0796 µM); in experiment [9] it was less than 0.008 µg/mL; in experiment [10], 0.063 µg/mL (≈ 0.162 µM); in [11], less than 0.008 µg/mL; in experiment [12] it was less than 0.008 µg/mL. In addition, the MIC in experiment [13] and in experiment [14] was less than 0.008 µg/mL in each case.
